The values that follow come from patent US20240067693A1, “POLYPEPTIDES AND USES THEREOF” (MEDIMMUNE LIMITED, priority 2020, published 2024).

For test [1], the target named is T1, human amylin receptor (calcitonin receptor co-expressed with receptor activity modifying protein, RAMP3) (hAMYR3) (Homo sapiens, UniProt O60896+P30988).
T1 construct: expressed in transfected cells
T1 sequence (P30988 25-474): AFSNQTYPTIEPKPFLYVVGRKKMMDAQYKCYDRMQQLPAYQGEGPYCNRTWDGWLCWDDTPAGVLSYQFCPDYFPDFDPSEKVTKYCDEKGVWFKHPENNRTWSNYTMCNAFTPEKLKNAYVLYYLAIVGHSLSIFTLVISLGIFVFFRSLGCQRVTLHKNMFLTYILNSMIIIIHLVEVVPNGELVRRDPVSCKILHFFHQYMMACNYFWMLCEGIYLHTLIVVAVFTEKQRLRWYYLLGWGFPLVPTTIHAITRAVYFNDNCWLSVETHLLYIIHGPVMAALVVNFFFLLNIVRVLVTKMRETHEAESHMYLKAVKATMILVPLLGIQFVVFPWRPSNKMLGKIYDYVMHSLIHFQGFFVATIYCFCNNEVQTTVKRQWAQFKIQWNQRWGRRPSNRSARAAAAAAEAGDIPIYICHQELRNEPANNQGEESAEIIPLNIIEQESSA
T1 sequence (O60896 24-148 partner): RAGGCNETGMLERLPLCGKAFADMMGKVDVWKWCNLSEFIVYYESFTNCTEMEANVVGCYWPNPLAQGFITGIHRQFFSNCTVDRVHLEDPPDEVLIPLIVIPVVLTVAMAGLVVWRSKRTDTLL
Nature of the test: cAMP production in 1321N1 cells with stable recombinant expression of human amylin receptor (hAMYR3). The class given is cell-based. To be noted: for Ratio (selectivity hAMYR vs hCTR, ratio of EC50 values at the two receptors): EC50 hCTR / EC50 hAMYR3; for EC50: cAMP, 1321N1 cells, assay buffer with 0.1% BSA, read-out: EC50 (pM) hAMYR3. The gist of the method: (§1)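 EC50 values come from 4-parameter logistic fits of HTRF cAMP signal, normalised to maximal calcitonin or amylin effect. Peptides were tested in duplicate for 30 min at RT in IBMX-containing (0.5 mM) BSA/HEPES buffer pH 7.4 on stable 1321N1 (human CTR, AMYR3) or HEK (rat CTR, AMYR3) lines.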
Background: cAMP levels reflect the balance of adenylyl cyclase and phosphodiesterase activity.

Test [2] deals with T2, human calcitonin receptor (hCTR) (Homo sapiens, UniProt P30988).
T2 construct: expressed in transfected cells
T2 sequence (P30988 25-474): T1 sequence (P30988 25-474)
Nature of the test: cAMP production in 1321N1 cells with stable recombinant expression of human calcitonin receptor (hCTR). The class given is cell-based. To be noted: cAMP, 1321N1 cells, assay buffer with 0.1% BSA; read-out: EC50 (pM) hCTR. The method, boiled down:
as §1

Numbered stars: 1 amine (or outer) side, 2 acyl side, 3 side chain; on linkers, the order of the positions; unused ones are H or OH. Bridge positions count the residues as written; N and C are the ends. Square brackets hold non-standard residues; d marks the D form. Side chains are listed from the residue outwards. Peptide text beside a SMILES is read from it. * marks the point of attachment. C20 diacid = O=C(O)CCCCCCCCCCCCCCCCCCC(=O)*; C18 diacid = O=C(O)CCCCCCCCCCCCCCCCC(=O)*; γGlu = O=C(O)[C@H](CCC(=O)[*:2])N[*:1]; Aib = CC(C)(N)C(=O)O

The term EC50 denotes the midpoint of the concentration-response curve. Consider `CC[C@H](C)[C@H](NC(=O)[C@@H]1CCCN1C(=O)CNC(=O)[C@H](Cc1ccccc1)NC(=O)[C@H](CC(N)=O)NC(=O)C(C)(C)NC(=O)[C@H](CO)NC(=O)[C@H](CO)NC(=O)[C@H](Cc1c[nH]cn1)NC(=O)[C@H](CCC(=O)O)NC(=O)[C@H](CC(C)C)NC(=O)[C@H](Cc1ccccc1)NC(=O)[C@H](CC(N)=O)NC(=O)[C@H](C)NC(=O)[C@H](CC(C)C)NC(=O)[C@H](CCCNC(=N)N)NC(=O)[C@H](CCC(N)=O)NC(=O)[C@@H](NC(=O)[C@H](C)NC(=O)[C@@H]1CSSC[C@H](NC(=O)[C@H](CCCCN)NC(=O)[C@@H](N)CCCCNC(=O)CC[C@H](NC(=O)CCCCCCCCCCCCCCCCC(=O)O)C(=O)O)C(=O)N[C@@H](CC(N)=O)C(=O)N[C@@H]([C@@H](C)O)C(=O)N[C@@H](C)C(=O)N[C@@H]([C@@H](C)O)C(=O)N1)[C@@H](C)O)C(=O)N[C@@H](CC(C)C)C(=O)N1CCC[C@H]1C(=O)N1CCC[C@H]1C(=O)N[C@H](C(=O)N[C@@H](CC(N)=O)C(=O)N[C@H](C(=O)NCC(=O)N[C@@H](CO)C(=O)N[C@@H](CC(N)=O)C(=O)N[C@H](C(=O)N[C@@H](Cc1ccc(O)cc1)C(N)=O)[C@@H](C)O)C(C)C)[C@@H](C)O` [Peptide 39, K(γE-C18diacid)K[CNTATC]ATQRLANFLEHSS(Aib)NFGPILPPTNVGSNTY-amide] (H-K([γGlu-C18 diacid])KCNTATCATQRLANFLEHSS[Aib]NFGPILPPTNVGSNTY-NH2; disulfide 3-8), for which, in test [1], the “Ratio (selectivity hAMYR vs hCTR, ratio of EC50 values at the two receptors)” value is reported as 10 and the concentration for a half-maximal effect (EC50) came to 1050 pM. Also, the EC50 in test [2] came to 10400 pM.
On the same counts, the results for `CC[C@H](C)[C@H](NC(=O)[C@@H]1CCCN1C(=O)CNC(=O)[C@H](Cc1ccccc1)NC(=O)[C@H](CC(N)=O)NC(=O)[C@@H]1CCCN1C(=O)[C@H](CO)NC(=O)[C@H](CO)NC(=O)[C@H](Cc1c[nH]cn1)NC(=O)C(C)(C)NC(=O)[C@H](CC(C)C)NC(=O)[C@H](Cc1ccccc1)NC(=O)[C@H](CC(N)=O)NC(=O)[C@H](C)NC(=O)[C@H](CC(C)C)NC(=O)[C@H](CCCNC(=N)N)NC(=O)[C@H](CCC(N)=O)NC(=O)[C@@H](NC(=O)[C@H](C)NC(=O)[C@@H]1CSSC[C@H](NC(=O)[C@H](CCCCN)NC(=O)[C@@H](N)CCCCNC(=O)CC[C@H](NC(=O)CCCCCCCCCCCCCCCCC(=O)O)C(=O)O)C(=O)N[C@@H](CC(N)=O)C(=O)N[C@@H]([C@@H](C)O)C(=O)N[C@@H](C)C(=O)N[C@@H]([C@@H](C)O)C(=O)N1)[C@@H](C)O)C(=O)N[C@@H](CC(C)C)C(=O)N1CCC[C@H]1C(=O)N1CCC[C@H]1C(=O)N[C@H](C(=O)N[C@@H](CC(N)=O)C(=O)N[C@H](C(=O)NCC(=O)N[C@@H](CO)C(=O)N[C@@H](CCC(=O)O)C(=O)N[C@H](C(=O)N[C@@H](Cc1ccc(O)cc1)C(N)=O)[C@@H](C)O)C(C)C)[C@@H](C)O` [Peptide 139] (H-K([γGlu-C18 diacid])KCNTATCATQRLANFL[Aib]HSSPNFGPILPPTNVGSETY-NH2; disulfide 3-8; N-terminus assumed) are 3.7, 285 pM and 1040 pM.
For the compound `CC[C@H](C)[C@H](NC(=O)[C@@H]1CCCN1C(=O)CNC(=O)[C@H](Cc1ccccc1)NC(=O)[C@H](CC(N)=O)NC(=O)C(C)(C)NC(=O)[C@H](CO)NC(=O)[C@H](CO)NC(=O)[C@H](Cc1c[nH]cn1)NC(=O)[C@@H](NC(=O)[C@H](CC(C)C)NC(=O)[C@H](Cc1ccccc1)NC(=O)[C@H](CC(N)=O)NC(=O)[C@H](C)NC(=O)[C@H](CC(C)C)NC(=O)[C@H](CCCNC(=N)N)NC(=O)[C@H](CCC(N)=O)NC(=O)[C@@H](NC(=O)[C@H](C)NC(=O)[C@@H]1CSSC[C@H](NC(=O)CC[C@H](NC(=O)CCCCCCCCCCCCCCCCC(=O)O)C(=O)O)C(=O)N[C@@H](CC(N)=O)C(=O)N[C@@H]([C@@H](C)O)C(=O)N[C@@H](C)C(=O)N[C@@H]([C@@H](C)O)C(=O)N1)[C@@H](C)O)C(C)C)C(=O)N[C@@H](CC(C)C)C(=O)N1CCC[C@H]1C(=O)N1CCC[C@H]1C(=O)N[C@H](C(=O)N[C@@H](CCCNC(=N)N)C(=O)N[C@H](C(=O)NCC(=O)N[C@@H](CO)C(=O)N[C@@H](CC(N)=O)C(=O)N[C@H](C(=O)N[C@@H](Cc1ccc(O)cc1)C(N)=O)[C@@H](C)O)C(C)C)[C@@H](C)O` [Peptide 68, (C18diacid-γE-[CNTATC]ATQRLANFLVHSS(Aib)NFGPILPPTRVGSNTY-amide] ({C18 diacid-γGlu}-CNTATCATQRLANFLVHSS[Aib]NFGPILPPTRVGSNTY-NH2; disulfide 1-6), in test [1], the “Ratio (selectivity hAMYR vs hCTR, ratio of EC50 values at the two receptors)” value amounted to 9 and the EC50 is 192 pM. Also, in test [2], the EC50 stood at 1770 pM.
In the same order, the values of `CC[C@H](C)[C@H](NC(=O)[C@@H]1CCCN1C(=O)CNC(=O)[C@H](Cc1ccccc1)NC(=O)[C@H](CC(N)=O)NC(=O)[C@H](CC(N)=O)NC(=O)[C@H](CO)NC(=O)[C@H](CO)NC(=O)[C@H](Cc1c[nH]cn1)NC(=O)C(C)(C)NC(=O)[C@H](CC(C)C)NC(=O)[C@H](Cc1ccccc1)NC(=O)[C@H](CC(N)=O)NC(=O)[C@H](C)NC(=O)[C@H](CC(C)C)NC(=O)[C@H](CCCNC(=N)N)NC(=O)[C@H](CCC(N)=O)NC(=O)[C@@H](NC(=O)[C@H](C)NC(=O)[C@@H]1CSSC[C@H](NC(=O)[C@H](CCCCN)NC(=O)[C@@H](N)CCCCNC(=O)CC[C@H](NC(=O)CCCCCCCCCCCCCCCCC(=O)O)C(=O)O)C(=O)N[C@@H](CC(N)=O)C(=O)N[C@@H]([C@@H](C)O)C(=O)N[C@@H](C)C(=O)N[C@@H]([C@@H](C)O)C(=O)N1)[C@@H](C)O)C(=O)N[C@@H](CC(C)C)C(=O)NC(C)(C)C(=O)N1CCC[C@H]1C(=O)N[C@H](C(=O)N[C@@H](CC(N)=O)C(=O)N[C@H](C(=O)NCC(=O)N[C@@H](CO)C(=O)N[C@@H](CC(N)=O)C(=O)N[C@H](C(=O)N[C@@H](Cc1ccc(O)cc1)C(N)=O)[C@@H](C)O)C(C)C)[C@@H](C)O` [Peptide 96, K(γE-C18diacid)K[CNTATC]ATQRLANFL(Aib)HSSNNFGPIL(Aib)PTNVGSNTY-amide] (H-K([γGlu-C18 diacid])KCNTATCATQRLANFL[Aib]HSSNNFGPIL[Aib]PTNVGSNTY-NH2; disulfide 3-8; N-terminus assumed) are 2, 556 pM and 859 pM.
On the same counts, the results for `CC[C@H](C)[C@H](NC(=O)[C@H](CO)NC(=O)[C@H](Cc1c[nH]cn1)NC(=O)[C@@H](NC(=O)[C@H](CC(C)C)NC(=O)[C@H](Cc1ccccc1)NC(=O)[C@H](CC(N)=O)NC(=O)[C@H](C)NC(=O)[C@H](CC(C)C)NC(=O)[C@H](CCCNC(=N)N)NC(=O)[C@H](CCC(N)=O)NC(=O)[C@@H](NC(=O)[C@H](C)NC(=O)[C@@H]1CSSC[C@H](NC(=O)[C@@H](N)CCCCNC(=O)CC[C@H](NC(=O)CC[C@H](NC(=O)CCCCCCCCCCCCCCCCCCC(=O)O)C(=O)O)C(=O)O)C(=O)N[C@@H](CC(N)=O)C(=O)N[C@@H]([C@@H](C)CC)C(=O)N[C@@H](C)C(=O)N[C@@H]([C@@H](C)O)C(=O)N1)[C@@H](C)O)C(C)C)C(=O)N[C@@H](C)C(=O)N[C@@H](CC(N)=O)C(=O)N[C@@H](Cc1ccccc1)C(=O)NCC(=O)N1CCC[C@H]1C(=O)N[C@H](C(=O)N[C@@H](CC(C)C)C(=O)N1CCC[C@H]1C(=O)N1CCC[C@H]1C(=O)N[C@H](C(=O)N[C@@H](CC(N)=O)C(=O)N[C@H](C(=O)NCC(=O)N[C@@H](CO)C(=O)N[C@@H](CCCNC(=N)N)C(=O)N[C@H](C(=O)N[C@@H](Cc1ccc(O)cc1)C(N)=O)[C@@H](C)O)C(C)C)[C@@H](C)O)[C@@H](C)CC` [Peptide 118] (H-K([γGlu-γGlu-C20 diacid])CNIATCATQRLANFLVHSIANFGPILPPTNVGSRTY-NH2; disulfide 2-7; N-terminus assumed) are 2, 417 pM and 792 pM.
